Key:
Assay type in all cases: ADME
[1] = molecular target: T1, CYP2C8 (Homo sapiens, UniProt P10632); assay: Inhibition of CYP2C8 in human liver microsomes assessed as enzyme-mediated metabolite formation at 0.3 uM using paclitaxel as substrate preincubated for 20 mins followed by substrate addition measured after 30 mins in presence of NADPH by LC-MS/MS analysis relative to control; design: scale not given: the % may be the effect or the level left; settings: probe paclitaxel, read-out: Activity
T1 sequence (P10632 whole entry): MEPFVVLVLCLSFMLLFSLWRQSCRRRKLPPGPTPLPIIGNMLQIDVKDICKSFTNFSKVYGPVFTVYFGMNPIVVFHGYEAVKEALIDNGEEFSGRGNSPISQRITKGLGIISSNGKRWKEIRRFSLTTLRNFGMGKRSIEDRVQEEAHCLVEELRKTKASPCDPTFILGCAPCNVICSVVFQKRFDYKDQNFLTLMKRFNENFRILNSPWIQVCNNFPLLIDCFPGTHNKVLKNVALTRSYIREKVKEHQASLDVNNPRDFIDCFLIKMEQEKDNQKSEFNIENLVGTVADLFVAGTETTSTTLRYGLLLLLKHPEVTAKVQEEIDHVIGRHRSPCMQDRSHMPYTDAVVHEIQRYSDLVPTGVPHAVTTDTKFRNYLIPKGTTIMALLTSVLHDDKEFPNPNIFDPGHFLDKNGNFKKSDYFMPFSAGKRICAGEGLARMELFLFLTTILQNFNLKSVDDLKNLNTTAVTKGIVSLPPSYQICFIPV

[2] = molecular target: T2, CYP2B6 (Homo sapiens, UniProt P20813); assay: Inhibition of CYP2B6 in human liver microsomes assessed as enzyme-mediated metabolite formation at 30 uM using bupropion as substrate preincubated for 20 mins followed by substrate addition measured after 30 mins in presence of NADPH by LC-MS/MS analysis relative to control; design: scale not given: the % may be the effect or the level left; settings: probe bupropion, read-out: Activity
T2 sequence (P20813 whole entry): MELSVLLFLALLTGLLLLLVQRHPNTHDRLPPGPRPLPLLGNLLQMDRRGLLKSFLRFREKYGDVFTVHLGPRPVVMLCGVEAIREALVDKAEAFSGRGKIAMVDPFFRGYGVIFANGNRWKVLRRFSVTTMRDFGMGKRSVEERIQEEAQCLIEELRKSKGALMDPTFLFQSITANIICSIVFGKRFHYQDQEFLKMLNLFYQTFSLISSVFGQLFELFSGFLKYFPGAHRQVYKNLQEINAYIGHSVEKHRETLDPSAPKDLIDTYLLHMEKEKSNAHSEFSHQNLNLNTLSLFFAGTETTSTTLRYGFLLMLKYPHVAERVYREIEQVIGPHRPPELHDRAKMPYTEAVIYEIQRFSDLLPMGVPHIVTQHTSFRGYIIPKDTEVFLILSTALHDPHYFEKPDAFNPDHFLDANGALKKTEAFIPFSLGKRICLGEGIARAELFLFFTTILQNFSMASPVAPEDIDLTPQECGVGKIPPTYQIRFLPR

[3] = molecular target: T1, CYP2C8; assay: Inhibition of CYP2C8 in human liver microsomes assessed as enzyme-mediated metabolite formation at 1 uM using paclitaxel as substrate preincubated for 20 mins followed by substrate addition measured after 30 mins in presence of NADPH by LC-MS/MS analysis relative to control; design: scale not given: the % may be the effect or the level left; settings: probe paclitaxel, read-out: Activity
[4] = molecular target: T3, CYP2D6 (Homo sapiens, UniProt P10635); assay: Inhibition of CYP2D6 in human liver microsomes assessed as enzyme-mediated metabolite formation at 10 uM using dextromethorphan as substrate preincubated for 20 mins followed by substrate addition measured after 30 mins in presence of NADPH by LC-MS/MS analysis relative to control; design: scale not given: the % may be the effect or the level left; settings: probe dextromethorphan, read-out: Activity
[5] = molecular target: T1, CYP2C8; assay: Inhibition of CYP2C8 in human liver microsomes assessed as enzyme-mediated metabolite formation at 10 uM using paclitaxel as substrate incubated for 5 mins followed by NADPH addition measured after 30 mins by LC-MS/MS analysis relative to control; design: scale not given: the % may be the effect or the level left; settings: probe paclitaxel, read-out: Activity
[6] = molecular target: T3, CYP2D6; assay: Inhibition of CYP2D6 in human liver microsomes assessed as enzyme-mediated metabolite formation at 0.3 uM using dextromethorphan as substrate preincubated for 20 mins followed by substrate addition measured after 30 mins in presence of NADPH by LC-MS/MS analysis relative to control; design: scale not given: the % may be the effect or the level left; settings: probe dextromethorphan, read-out: Activity
[7] = molecular target: T4, Cytochrome P450 1A2 (Homo sapiens, UniProt P05177); assay: Inhibition of CYP1A2 in human liver microsomes assessed as enzyme-mediated metabolite formation using phenacetin as substrate incubated for 5 mins followed by NADPH addition measured after 30 mins by LC-MS/MS analysis
T4 sequence (P05177 whole entry): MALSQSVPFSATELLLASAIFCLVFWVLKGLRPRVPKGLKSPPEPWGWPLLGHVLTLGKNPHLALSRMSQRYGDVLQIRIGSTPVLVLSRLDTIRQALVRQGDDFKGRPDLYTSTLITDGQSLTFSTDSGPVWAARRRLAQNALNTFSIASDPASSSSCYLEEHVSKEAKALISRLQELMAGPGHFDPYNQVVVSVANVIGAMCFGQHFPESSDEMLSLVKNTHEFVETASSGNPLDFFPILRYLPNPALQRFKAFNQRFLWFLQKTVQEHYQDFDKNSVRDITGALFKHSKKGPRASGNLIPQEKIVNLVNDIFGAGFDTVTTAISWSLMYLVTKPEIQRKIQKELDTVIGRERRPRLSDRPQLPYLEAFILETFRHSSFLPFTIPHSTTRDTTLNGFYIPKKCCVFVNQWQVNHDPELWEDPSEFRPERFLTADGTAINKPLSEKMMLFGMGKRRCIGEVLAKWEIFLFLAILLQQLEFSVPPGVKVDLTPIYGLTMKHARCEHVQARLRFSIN

[8] = molecular target: CYP3A4 (Homo sapiens, UniProt P08684); assay: Inhibition of CYP3A4 in human liver microsomes assessed as enzyme-mediated metabolite formation at 0.3 uM using midazolam as substrate preincubated for 20 mins followed by substrate addition measured after 30 mins in presence of NADPH by LC-MS/MS analysis relative to control; design: scale not given: the % may be the effect or the level left; settings: probe midazolam, read-out: Activity
[9] = molecular target: Cytochrome P450 2D6 (Homo sapiens, UniProt P10635); assay: Inhibition of CYP2D6 in human liver microsomes using dextromethorphan as substrate preincubated for 20 mins followed by substrate addition measured after 30 mins in presence of NADPH by LC-MS/MS analysis
[10] = molecular target: T2, CYP2B6; assay: Inhibition of CYP2B6 in human liver microsomes assessed as enzyme-mediated metabolite formation at 1 uM using bupropion as substrate preincubated for 20 mins followed by substrate addition measured after 30 mins in presence of NADPH by LC-MS/MS analysis relative to control; design: scale not given: the % may be the effect or the level left; settings: probe bupropion, read-out: Activity

T3 sequence (P10635 whole entry): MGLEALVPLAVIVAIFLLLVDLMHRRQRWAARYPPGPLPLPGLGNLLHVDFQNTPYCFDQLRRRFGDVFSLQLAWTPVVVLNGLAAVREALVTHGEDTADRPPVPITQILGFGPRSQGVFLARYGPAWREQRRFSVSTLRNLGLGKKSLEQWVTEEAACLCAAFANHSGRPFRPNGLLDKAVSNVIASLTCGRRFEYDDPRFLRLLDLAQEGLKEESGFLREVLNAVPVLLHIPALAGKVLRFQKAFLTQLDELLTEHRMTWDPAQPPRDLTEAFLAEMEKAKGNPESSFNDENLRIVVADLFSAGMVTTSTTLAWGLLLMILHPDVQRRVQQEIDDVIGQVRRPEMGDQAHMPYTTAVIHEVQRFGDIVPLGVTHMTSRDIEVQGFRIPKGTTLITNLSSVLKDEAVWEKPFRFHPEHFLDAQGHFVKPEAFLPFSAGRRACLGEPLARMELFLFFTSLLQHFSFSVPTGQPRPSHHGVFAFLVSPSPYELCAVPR
Chain of Cytochrome P450 2D6 (P10635 whole entry): as above
Chain of CYP3A4 (P08684 whole entry): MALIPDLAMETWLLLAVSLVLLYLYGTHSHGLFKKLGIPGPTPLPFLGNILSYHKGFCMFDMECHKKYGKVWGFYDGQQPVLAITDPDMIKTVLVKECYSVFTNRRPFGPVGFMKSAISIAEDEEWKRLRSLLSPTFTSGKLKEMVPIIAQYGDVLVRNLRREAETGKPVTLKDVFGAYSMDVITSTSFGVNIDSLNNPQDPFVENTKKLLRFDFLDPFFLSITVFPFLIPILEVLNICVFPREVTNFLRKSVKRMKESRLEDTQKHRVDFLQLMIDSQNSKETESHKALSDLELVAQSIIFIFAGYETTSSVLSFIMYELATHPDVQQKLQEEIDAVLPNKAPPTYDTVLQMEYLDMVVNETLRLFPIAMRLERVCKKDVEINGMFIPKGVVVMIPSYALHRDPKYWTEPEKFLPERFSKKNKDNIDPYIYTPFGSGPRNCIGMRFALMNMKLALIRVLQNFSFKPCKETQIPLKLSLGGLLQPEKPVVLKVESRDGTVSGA

Compound: CCCCCCCC(=O)CCc1ccc(O)c(OC)c1
- activity at 0.5 h, 0.3 µM [1]: 77.2%
- activity at 0.5 h, 30 µM [2]: 45.5%
- activity at 0.5 h, 1 µM [3]: 61.5%
- activity at 0.5 h, 10 µM [4]: 99.4%
- activity at 0.5 h, 10 µM [5]: 45.5%
- activity at 0.5 h, 0.3 µM [6]: 87%
- IC50 [7]: 7.1 µM
- activity at 0.5 h, 0.3 µM [8]: 88.9%
- IC50 [9]: > 30 µM
- activity at 0.5 h, 1 µM [10]: 79%
